These results are taken from ChEMBL document CHEMBL4007467, “Effects of 6-paradol, an unsaturated ketone from gingers, on cytochrome P450-mediated drug metabolism” (Bioorg Med Chem Lett, 2017).

What all share (assay type): ADME
Data set [1] concerns the target T1, CYP1A2 (Homo sapiens, UniProt P05177).
T1 sequence (P05177 whole entry): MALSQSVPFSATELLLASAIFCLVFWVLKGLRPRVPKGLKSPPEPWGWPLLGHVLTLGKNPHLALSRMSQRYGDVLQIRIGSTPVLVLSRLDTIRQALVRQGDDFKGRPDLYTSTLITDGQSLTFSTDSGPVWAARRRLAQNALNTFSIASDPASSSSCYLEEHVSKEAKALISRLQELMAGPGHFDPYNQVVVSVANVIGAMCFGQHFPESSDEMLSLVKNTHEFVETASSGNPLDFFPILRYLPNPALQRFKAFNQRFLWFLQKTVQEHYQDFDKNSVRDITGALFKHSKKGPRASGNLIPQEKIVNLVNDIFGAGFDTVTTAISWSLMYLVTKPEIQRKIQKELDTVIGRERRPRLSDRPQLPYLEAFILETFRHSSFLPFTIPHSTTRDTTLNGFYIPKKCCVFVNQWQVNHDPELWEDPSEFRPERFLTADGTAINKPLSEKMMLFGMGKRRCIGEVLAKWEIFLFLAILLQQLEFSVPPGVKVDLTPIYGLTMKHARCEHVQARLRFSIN
As to the kind of experiment: Inhibition of CYP1A2 in human liver microsomes assessed as enzyme-mediated metabolite formation at 30 uM using phenacetin as substrate incubated for 5 mins followed by NADPH addition measured after 30 mins by LC-MS/MS analysis relative to control. As to conditions: probe phenacetin, read-out: Activity. Also on record: scale not given: the % may be the effect or the level left.

The target of data set [2] is T2, CYP3A4 (Homo sapiens, UniProt P08684). As to the kind of experiment: Inhibition of CYP3A4 in human liver microsomes assessed as enzyme-mediated metabolite formation at 10 uM using testosterone as substrate incubated for 5 mins followed by NADPH addition measured after 30 mins by LC-MS/MS analysis relative to control. Also on record: scale not given: the % may be the effect or the level left. As to conditions: probe testosterone, read-out: Activity. On the technique in general: Liver microsomes are vesicles of endoplasmic reticulum, rich in cytochrome P450 enzymes.

The target of data set [3] is T3, CYP2C8 (Homo sapiens, UniProt P10632).
T3 sequence (P10632 whole entry): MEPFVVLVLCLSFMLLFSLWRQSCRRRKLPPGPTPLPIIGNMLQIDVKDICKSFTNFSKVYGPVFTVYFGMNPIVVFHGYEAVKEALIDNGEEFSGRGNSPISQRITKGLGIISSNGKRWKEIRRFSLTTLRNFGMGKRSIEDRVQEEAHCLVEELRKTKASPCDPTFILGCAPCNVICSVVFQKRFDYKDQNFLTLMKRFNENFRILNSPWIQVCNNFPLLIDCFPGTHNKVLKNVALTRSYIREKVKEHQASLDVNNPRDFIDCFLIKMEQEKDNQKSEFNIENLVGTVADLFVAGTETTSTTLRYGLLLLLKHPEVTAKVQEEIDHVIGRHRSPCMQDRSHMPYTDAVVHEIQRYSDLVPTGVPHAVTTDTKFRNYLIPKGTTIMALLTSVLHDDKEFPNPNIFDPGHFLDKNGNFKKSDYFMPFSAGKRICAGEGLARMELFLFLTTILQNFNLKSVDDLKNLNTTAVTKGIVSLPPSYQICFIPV
The data set can be described thus: Inhibition of CYP2C8 in human liver microsomes assessed as enzyme-mediated metabolite formation at 0.3 uM using paclitaxel as substrate preincubated for 20 mins followed by substrate addition measured after 30 mins in presence of NADPH by LC-MS/MS analysis relative to control. The following applies: probe paclitaxel, read-out: Activity. Also noted: scale not given: the % may be the effect or the level left.

Data set [4] concerns the target T4, CYP2B6 (Homo sapiens, UniProt P20813).
T4 sequence (P20813 whole entry): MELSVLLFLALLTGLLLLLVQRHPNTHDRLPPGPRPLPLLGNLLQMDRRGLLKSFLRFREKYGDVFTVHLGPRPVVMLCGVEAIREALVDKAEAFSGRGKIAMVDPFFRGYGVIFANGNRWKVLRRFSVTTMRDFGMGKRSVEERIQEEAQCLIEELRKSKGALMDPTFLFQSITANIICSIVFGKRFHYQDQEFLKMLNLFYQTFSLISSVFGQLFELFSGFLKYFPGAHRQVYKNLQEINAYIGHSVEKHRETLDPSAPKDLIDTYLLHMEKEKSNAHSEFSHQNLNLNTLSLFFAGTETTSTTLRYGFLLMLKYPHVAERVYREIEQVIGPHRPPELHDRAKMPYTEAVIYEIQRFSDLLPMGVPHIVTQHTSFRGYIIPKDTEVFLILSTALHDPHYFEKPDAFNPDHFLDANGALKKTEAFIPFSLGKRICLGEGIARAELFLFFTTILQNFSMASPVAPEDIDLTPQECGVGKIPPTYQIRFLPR
The data set can be described thus: Inhibition of CYP2B6 in human liver microsomes assessed as enzyme-mediated metabolite formation at 10 uM using bupropion as substrate preincubated for 20 mins followed by substrate addition measured after 30 mins in presence of NADPH by LC-MS/MS analysis relative to control. Also noted: scale not given: the % may be the effect or the level left. As to conditions: probe bupropion, read-out: Activity.

In the next data set the target is Cytochrome P450 2C9 (Homo sapiens, UniProt P11712). As to the kind of experiment: Inhibition of human CYP2C9 using diclofenac as substrate incubated for 5 mins followed by NADPH addition measured after 30 mins by LC-MS/MS analysis.
For data set [5], the target named is T2, CYP3A4. As to the kind of experiment: Inhibition of CYP3A4 in human liver microsomes assessed as enzyme-mediated metabolite formation at 0.1 uM using midazolam as substrate incubated for 5 mins followed by NADPH addition measured after 30 mins by LC-MS/MS analysis relative to control. Also on record: scale not given: the % may be the effect or the level left. As to conditions: probe midazolam, read-out: Activity.

Data set [6] has as its target T3, CYP2C8. The data set can be described thus: Inhibition of CYP2C8 in human liver microsomes assessed as enzyme-mediated metabolite formation at 10 uM using paclitaxel as substrate incubated for 5 mins followed by NADPH addition measured after 30 mins by LC-MS/MS analysis relative to control. Also noted: scale not given: the % may be the effect or the level left. The following applies: probe paclitaxel, read-out: Activity.

Data set [7] concerns the target T4, CYP2B6. As to the kind of experiment: Inhibition of CYP2B6 in human liver microsomes assessed as enzyme-mediated metabolite formation at 0.3 uM using bupropion as substrate incubated for 5 mins followed by NADPH addition measured after 30 mins by LC-MS/MS analysis relative to control. Also on record: scale not given: the % may be the effect or the level left. As to conditions: probe bupropion, read-out: Activity.

The next data set addresses Cytochrome P450 2D6 (Homo sapiens, UniProt P10635). The data set can be described thus: Inhibition of CYP2D6 in human liver microsomes assessed as enzyme-mediated metabolite formation using dextromethorphan as substrate incubated for 5 mins followed by NADPH addition measured after 30 mins by LC-MS/MS analysis.
For data set [8], the target named is T1, CYP1A2. The data set can be described thus: Inhibition of CYP1A2 in human liver microsomes assessed as enzyme-mediated metabolite formation at 10 uM using phenacetin as substrate incubated for 5 mins followed by NADPH addition measured after 30 mins by LC-MS/MS analysis relative to control. Also noted: scale not given: the % may be the effect or the level left. As to conditions: probe phenacetin, read-out: Activity.

For another data set, the target named is T5, Cytochrome P450 2B6 (Homo sapiens, UniProt P20813).
T5 sequence (P20813 whole entry): T4 sequence (P20813 whole entry)
The data set can be described thus: Inhibition of CYP2B6 in human liver microsomes using bupropion as substrate preincubated for 20 mins followed by substrate addition measured after 30 mins in presence of NADPH by LC-MS/MS analysis.

For the next data set, the target named is Cytochrome P450 2C19 (Homo sapiens, UniProt P33261). The data set can be described thus: Inhibition of CYP2C19 in human liver microsomes using (S)-mephenytoin as substrate preincubated for 20 mins followed by substrate addition measured after 30 mins in presence of NADPH by LC-MS/MS analysis.
A further data set concerns the target CYP2D6 (Homo sapiens, UniProt P10635). As to the kind of experiment: Inhibition of CYP2D6 in human liver microsomes assessed as enzyme-mediated metabolite formation at 0.1 uM using dextromethorphan as substrate incubated for 5 mins followed by NADPH addition measured after 30 mins by LC-MS/MS analysis relative to control. Also noted: scale not given: the % may be the effect or the level left. As to conditions: probe dextromethorphan, read-out: Activity.

T2 sequence (P08684 whole entry): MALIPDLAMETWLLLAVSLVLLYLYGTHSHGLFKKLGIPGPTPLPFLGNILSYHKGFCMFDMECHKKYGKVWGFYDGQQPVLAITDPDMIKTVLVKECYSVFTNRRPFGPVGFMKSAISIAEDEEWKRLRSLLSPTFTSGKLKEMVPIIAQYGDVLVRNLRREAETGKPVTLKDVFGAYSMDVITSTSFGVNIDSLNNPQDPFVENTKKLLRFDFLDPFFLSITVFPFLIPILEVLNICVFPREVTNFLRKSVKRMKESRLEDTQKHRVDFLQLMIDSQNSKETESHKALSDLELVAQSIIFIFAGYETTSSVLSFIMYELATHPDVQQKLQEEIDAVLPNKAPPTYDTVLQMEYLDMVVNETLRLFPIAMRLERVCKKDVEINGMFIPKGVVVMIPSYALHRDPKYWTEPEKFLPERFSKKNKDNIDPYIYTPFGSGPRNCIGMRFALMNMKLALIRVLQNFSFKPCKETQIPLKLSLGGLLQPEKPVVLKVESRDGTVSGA
Chain of Cytochrome P450 2C9 (P11712 whole entry): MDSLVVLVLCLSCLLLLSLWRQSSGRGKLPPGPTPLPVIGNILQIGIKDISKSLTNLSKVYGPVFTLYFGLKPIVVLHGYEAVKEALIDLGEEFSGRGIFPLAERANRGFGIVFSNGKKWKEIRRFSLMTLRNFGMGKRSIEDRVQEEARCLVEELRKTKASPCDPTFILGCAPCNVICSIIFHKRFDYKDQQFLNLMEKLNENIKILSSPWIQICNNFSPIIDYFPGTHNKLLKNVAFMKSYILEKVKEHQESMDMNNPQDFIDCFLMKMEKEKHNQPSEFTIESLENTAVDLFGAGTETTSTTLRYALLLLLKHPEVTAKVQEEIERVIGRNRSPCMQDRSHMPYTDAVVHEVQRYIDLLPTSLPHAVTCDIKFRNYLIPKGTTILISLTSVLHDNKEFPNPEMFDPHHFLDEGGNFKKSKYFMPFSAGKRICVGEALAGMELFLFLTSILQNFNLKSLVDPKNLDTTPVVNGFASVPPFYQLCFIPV
Chain of Cytochrome P450 2D6 (P10635 whole entry): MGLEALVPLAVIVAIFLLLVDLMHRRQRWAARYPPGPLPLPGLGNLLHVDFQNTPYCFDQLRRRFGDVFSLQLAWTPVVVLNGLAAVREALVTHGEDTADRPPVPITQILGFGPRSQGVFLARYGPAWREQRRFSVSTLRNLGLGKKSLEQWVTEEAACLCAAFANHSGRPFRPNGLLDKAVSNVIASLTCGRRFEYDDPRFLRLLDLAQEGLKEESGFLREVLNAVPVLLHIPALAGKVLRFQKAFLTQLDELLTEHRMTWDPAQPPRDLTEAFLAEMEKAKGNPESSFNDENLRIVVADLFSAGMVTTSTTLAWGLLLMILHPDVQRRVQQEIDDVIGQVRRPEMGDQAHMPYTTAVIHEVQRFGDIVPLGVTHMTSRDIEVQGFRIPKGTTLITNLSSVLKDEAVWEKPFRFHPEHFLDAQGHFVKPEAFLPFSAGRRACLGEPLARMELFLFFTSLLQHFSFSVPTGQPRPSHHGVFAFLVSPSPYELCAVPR
Chain of CYP2D6 (P10635 whole entry): as above
Chain of Cytochrome P450 2C19 (P33261 whole entry): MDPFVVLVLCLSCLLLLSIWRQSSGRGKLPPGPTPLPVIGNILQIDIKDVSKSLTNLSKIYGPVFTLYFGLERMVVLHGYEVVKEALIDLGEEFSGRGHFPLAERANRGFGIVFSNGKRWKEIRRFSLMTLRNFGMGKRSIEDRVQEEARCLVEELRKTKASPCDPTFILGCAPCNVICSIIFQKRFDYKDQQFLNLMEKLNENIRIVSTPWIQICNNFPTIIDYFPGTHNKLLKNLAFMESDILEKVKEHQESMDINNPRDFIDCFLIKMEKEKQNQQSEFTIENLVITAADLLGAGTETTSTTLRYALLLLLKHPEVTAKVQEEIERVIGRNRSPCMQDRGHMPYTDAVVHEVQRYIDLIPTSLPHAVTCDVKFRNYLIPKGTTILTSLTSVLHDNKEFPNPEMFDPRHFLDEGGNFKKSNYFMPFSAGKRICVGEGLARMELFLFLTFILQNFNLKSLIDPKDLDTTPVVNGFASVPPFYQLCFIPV

For `CCCCCCCC(=O)CCc1ccc(O)c(OC)c1`, the activity at 0.5 h, 30 µM at CYP1A2 [1] is 35.5%. Moreover, the activity at 0.5 h, 10 µM at CYP3A4 [2] is 58.6%; at CYP2B6 [4] it was 54.3%; on CYP2C8 [6] it was 45.5%; at CYP1A2 [8], 49.7%. Further, the activity at 0.5 h, 0.3 µM at CYP2C8 [3] turned out to be 77.2%; at CYP2B6 [7], 68.8%. Also, the concentration for half-maximal inhibition (IC50) is 10.5 µM on Cytochrome P450 2C9, above 30 µM at Cytochrome P450 2D6, 6.3 µM on Cytochrome P450 2B6 and 3.6 µM at Cytochrome P450 2C19. Besides, the “inhibition (INH)” value at Cytochrome P450 2C9 (human, 0.5 h) is “Dose-dependent effect”. Moreover, the results for the activity at 0.5 h, 0.1 µM on CYP3A4 [5] and on CYP2D6 were 109% and 112%, respectively.

Broadly, the IC50 is the point on the concentration scale where inhibition reaches its midpoint.
